{
  "source": "patent US20090176817A1",
  "about": "“Method of Treatment of Diarrhea-Predominant Irritable Bowel Syndrome in a Subject” (priority 2005, published 2009)",
  "key": {"[1]": {"assay": "Study S.241.1.107: pharmacokinetics in hepatic impairment, 8 mg TID", "conditions": "for AUC(0-τ): AUC(0-8); for AUC(0-τ) / Cmax / T½: arith. mean (%CV); for Tmax: median", "description": "The effect of hepatic impairment on the pharmacokinetics of cilansetron was evaluated in a multiple-dose, parallel group study in 14 healthy and 14 moderately to severely hepatically impaired male and female subjects, aged 41-70 years. Impaired subjects (Child-Pugh score 7 to 11) were matched to healthy subjects by age (±2 years), sex, menstrual status, and smoking history status. All subjects received oral cilansetron 8 mg TID on Days 1 to 5, and a single dose on the morning of Day 6. […] Blood samples were also collected at predose on Day 1, and at predose, 1 hour and 1.5 hours postdose on Day 6, for measurement of cilansetron protein binding in serum."}, "[2]": {"assay": "Study S.241.1.110: ex vivo protein binding in serum, healthy and renally impaired", "conditions": "for Fraction unbound ratio All Renal Groups Combined:Healthy / Fraction unbound ratio Mild:Healthy / Fraction unbound ratio Moderate:Healthy / Fraction unbound ratio Severe:Healthy: ratio (90% CI)", "description": "The ex vivo protein binding of cilansetron and its 4-hydroxy metabolites has been measured in serum samples collected in a multiple-dose study in healthy and renally impaired male and female subjects, aged 33-74 years. […] Healthy subjects were matched to renally-impaired subjects with respect to age, weight, gender, and smoking status. All subjects received oral cilansetron 2 mg TID on Days 1 to 5, and a single dose on the morning of Day 6."}, "[3]": {"assay": "Study S.241.1.110: pharmacokinetics in renal impairment, 2 mg TID", "conditions": "for AUC(0-τ) / Cmax / T½ / Tmax / Cmin: cilansetron 2 mg TID; for AUC(0-τ) / Cmax / T½ / Cmin: mean (%CV); for Tmax: median; for Cmin: Day 6 morning predose value", "description": "The effect of renal impairment on the pharmacokinetics of cilansetron was evaluated in a study excluding subjects with end-stage renal disease, and utilizing a single-center, open-label, multiple-dose, parallel group study in 13 male and 9 female subjects, aged 33-74 years. […] Healthy subjects were matched to renally-impaired subjects with respect to age, weight, gender, and smoking status. All subjects received oral cilansetron 2 mg TID on Days 1 to 5, and a single dose on the morning of Day 6. Blood samples for measurement of plasma pharmacokinetics of cilansetron and its 4-hydroxy metabolites were collected up to 24 hours following dosing on Day 6, and log-transformed pharmacokinetic parameters for these analytes were statistically compared between study groups. Serum concentrations of unbound cilansetron and its 4-hydroxy metabolites were also measured prior to dosing and at 1 and 1.5 hours postdose on Day 6."}, "[4]": {"conditions": "geometric LS mean ratio impaired/healthy, cilansetron 8 mg TID oral"}, "[5]": {"conditions": "healthy, cilansetron 8 mg TID oral"}, "[6]": {"conditions": "hepatically impaired, cilansetron 8 mg TID oral"}, "[7]": {"conditions": "moderate renal impairment, Day 6"}},
  "note": "Marks after values point to notes of the source that are not given here.",
  "data": [
    {"smiles": "Cc1nccn1CC1CCc2c(c3cccc4c3n2CC[C@H]4O)C1=O", "note": "(stereo partly drawn) [(4R)-hydroxy cilansetron]", "values": [
      {"measurement": "AUC(0-τ) Ratio", "setting": "[1]; [4]", "value": 0.86},
      {"measurement": "Cmax Ratio", "setting": "[1]; [4]", "value": 0.70},
      {"measurement": "AUC(0-τ), Geom. LS Mean", "setting": "[1]; [5]", "value": 57.4, "unit": "ng·h/mL"},
      {"measurement": "Cmax, Geom. LS Mean", "setting": "[1]; [5]", "value": 13.2, "unit": "ng/mL"},
      {"measurement": "AUC(0-τ)", "setting": "[1]; [5]", "value": "62.7 (32) ng · h/mL"},
      {"measurement": "Cmax", "setting": "[1]; [5]", "value": "14.1 (28) ng/mL"},
      {"measurement": "T½", "setting": "[1]; [5]", "value": "6.38 (18) h"},
      {"measurement": "Tmax", "setting": "[1]; [5]", "value": 1.00, "unit": "h"},
      {"measurement": "AUC(0-τ), Geom. LS Mean", "setting": "[1]; [6]", "value": 49.4, "unit": "ng·h/mL"},
      {"measurement": "Cmax, Geom. LS Mean", "setting": "[1]; [6]", "value": 9.30, "unit": "ng/mL"},
      {"measurement": "AUC(0-τ)", "setting": "[1]; [6]", "value": "53.7 (40) ng · h/mL"},
      {"measurement": "Cmax", "setting": "[1]; [6]", "value": "11.1 (62) ng/mL"},
      {"measurement": "T½", "setting": "[1]; [6]", "value": "10.0 (41) h"},
      {"measurement": "Tmax", "setting": "[1]; [6]", "value": 1.50, "unit": "h"},
      {"measurement": "AUC(0-τ) decrease with hepatic impairment", "setting": "[1]; in vivo", "value": 14, "unit": "%"},
      {"measurement": "Cmax decrease with hepatic impairment", "setting": "[1]; in vivo", "value": 30, "unit": "%"},
      {"measurement": "Fraction unbound ratio All Renal Groups Combined:Healthy", "setting": "[2]; 1 h", "value": "121 (109, 134)^b %"},
      {"measurement": "Fraction unbound ratio Mild:Healthy", "setting": "[2]; 1 h", "value": "106 (93, 121) %"},
      {"measurement": "Fraction unbound ratio Moderate:Healthy", "setting": "[2]; 1 h", "value": "137 (119, 157)^b %"},
      {"measurement": "Fraction unbound ratio Severe:Healthy", "setting": "[2]; 1 h", "value": "121 (105, 140)^b %"},
      {"measurement": "Fraction Unbound in Serum", "setting": "[2]; Day 6 1 h, Healthy", "value": "24.7 (7) %"},
      {"measurement": "Fraction Unbound in Serum", "setting": "[2]; Day 6 1 h, Mild", "value": "26.4 (14) %"},
      {"measurement": "Fraction Unbound in Serum", "setting": "[2]; Day 6 1 h, Moderate", "value": "34.3 (22) %"},
      {"measurement": "Fraction Unbound in Serum", "setting": "[2]; Day 6 1 h, Severe", "value": "30.2 (18) %"},
      {"measurement": "Fraction Unbound in Serum", "setting": "[2]; Day 6 […], Healthy", "value": "27.6 (15) %"},
      {"measurement": "Fraction Unbound in Serum", "setting": "[2]; Day 6 […], Mild", "value": "26.2 (17) %"},
      {"measurement": "Fraction Unbound in Serum", "setting": "[2]; Day 6 […], Moderate", "value": "28.5 (13) %"},
      {"measurement": "Fraction Unbound in Serum", "setting": "[2]; Day 6 […], Severe", "value": "23.7 (11) %"},
      {"measurement": "Fraction Unbound in Serum", "setting": "[2]; Day 6 predose, Healthy", "value": "25.3 (11) %"},
      {"measurement": "Fraction Unbound in Serum", "setting": "[2]; Day 6 predose, Mild", "value": "29.6 (30) %"},
      {"measurement": "Fraction Unbound in Serum", "setting": "[2]; Day 6 predose, Moderate", "value": "31.0 (21) %"},
      {"measurement": "Fraction Unbound in Serum", "setting": "[2]; Day 6 predose, Severe", "value": "32.4 (17) %"},
      {"measurement": "Fraction unbound ratio All Renal Groups Combined:Healthy", "setting": "[2]; […]", "value": "95 (85, 105) %"},
      {"measurement": "Fraction unbound ratio Mild:Healthy", "setting": "[2]; […]", "value": "95 (83, 109) %"},
      {"measurement": "Fraction unbound ratio Moderate:Healthy", "setting": "[2]; […]", "value": "104 (90, 120) %"},
      {"measurement": "Fraction unbound ratio Severe:Healthy", "setting": "[2]; […]", "value": "86 (74, 100) %"},
      {"measurement": "Protein bound on average", "setting": "[2]; healthy subjects", "value": "72.4-75.3%"},
      {"measurement": "Fraction unbound ratio All Renal Groups Combined:Healthy", "setting": "[2]; predose", "value": "121 (105, 139)^b %"},
      {"measurement": "Fraction unbound ratio Mild:Healthy", "setting": "[2]; predose", "value": "114 (96, 137) %"},
      {"measurement": "Fraction unbound ratio Moderate:Healthy", "setting": "[2]; predose", "value": "122 (100, 147) %"},
      {"measurement": "Fraction unbound ratio Severe:Healthy", "setting": "[2]; predose", "value": "128 (105, 155)^b %"},
      {"measurement": "Plasma protein bound", "setting": "[2]; therapeutic concentration range", "value": "72-75%"},
      {"measurement": "Plasma Conc.", "setting": "[3]; Day 6 1 h, Healthy", "value": "3.90 (37) ng/mL"},
      {"measurement": "Plasma Conc.", "setting": "[3]; Day 6 1 h, Mild", "value": "4.86 (39) ng/mL"},
      {"measurement": "Plasma Conc.", "setting": "[3]; Day 6 1 h, Moderate", "value": "3.94 (32) ng/mL"},
      {"measurement": "Plasma Conc.", "setting": "[3]; Day 6 1 h, Severe", "value": "7.67 (38) ng/mL"},
      {"measurement": "AUC(0-τ) ratio Mild/Healthy", "setting": "[3]; Day 6, geometric LS mean ratio (90% CI)", "value": "118 (90, 153) %"},
      {"measurement": "AUC(0-τ) ratio Moderate/Healthy", "setting": "[3]; Day 6, ratio (90% CI)", "value": "137 (104, 182) %"},
      {"measurement": "AUC(0-τ) ratio Renal Combined/Healthy", "setting": "[3]; Day 6, ratio (90% CI)", "value": "166 (136, 204)* %"},
      {"measurement": "AUC(0-τ) ratio Severe/Healthy", "setting": "[3]; Day 6, ratio (90% CI)", "value": "284 (215, 377)* %"},
      {"measurement": "Cmax ratio Mild/Healthy", "setting": "[3]; Day 6, ratio (90% CI)", "value": "134 (101, 177) %"},
      {"measurement": "Cmax ratio Moderate/Healthy", "setting": "[3]; Day 6, ratio (90% CI)", "value": "137 (102, 185) %"},
      {"measurement": "Cmax ratio Renal Combined/Healthy", "setting": "[3]; Day 6, ratio (90% CI)", "value": "158 (127, 196)* %"},
      {"measurement": "Cmax ratio Severe/Healthy", "setting": "[3]; Day 6, ratio (90% CI)", "value": "215 (159, 290)* %"},
      {"measurement": "T½ ratio Mild/Healthy", "setting": "[3]; Day 6, ratio (90% CI)", "value": "109 (84, 142) %"},
      {"measurement": "T½ ratio Moderate/Healthy", "setting": "[3]; Day 6, ratio (90% CI)", "value": "129 (97, 171) %"},
      {"measurement": "T½ ratio Renal Combined/Healthy", "setting": "[3]; Day 6, ratio (90% CI)", "value": "140 (114, 172)* %"},
      {"measurement": "T½ ratio Severe/Healthy", "setting": "[3]; Day 6, ratio (90% CI)", "value": "195 (147, 259)* %"},
      {"measurement": "Plasma Conc.", "setting": "[3]; Day 6 […], Healthy", "value": "3.79 (20) ng/mL"},
      {"measurement": "Plasma Conc.", "setting": "[3]; Day 6 […], Mild", "value": "3.86 (20) ng/mL"},
      {"measurement": "Plasma Conc.", "setting": "[3]; Day 6 […], Moderate", "value": "4.75 (28) ng/mL"},
      {"measurement": "Plasma Conc.", "setting": "[3]; Day 6 […], Severe", "value": "7.87 (38) ng/mL"},
      {"measurement": "AUC(0-τ)", "setting": "[3]; healthy subjects, Day 6", "value": "18.7 (21) ng · h/mL"},
      {"measurement": "Cmax", "setting": "[3]; healthy subjects, Day 6", "value": "4.30 (33) ng/mL"},
      {"measurement": "T½", "setting": "[3]; healthy subjects, Day 6", "value": "7.05 (21) h"},
      {"measurement": "Tmax", "setting": "[3]; healthy subjects, Day 6", "value": 1.25, "unit": "h"},
      {"measurement": "Cmin", "setting": "[3]; healthy subjects", "value": "1.56 (24) ng/mL"},
      {"measurement": "Exposure increase with severe renal impairment", "setting": "[3]; in vivo", "value": "2-3 fold"},
      {"measurement": "Mean AUC(0-τ) increase vs healthy", "setting": "[3]; mild impairment", "value": 18, "unit": "%"},
      {"measurement": "Mean Cmax increase vs healthy", "setting": "[3]; mild impairment", "value": 34, "unit": "%"},
      {"measurement": "AUC(0-τ)", "setting": "[3]; mild renal impairment, Day 6", "value": "21.6 (9) ng · h/mL"},
      {"measurement": "Cmax", "setting": "[3]; mild renal impairment, Day 6", "value": "5.66 (25) ng/mL"},
      {"measurement": "T½", "setting": "[3]; mild renal impairment, Day 6", "value": "7.93 (38) h"},
      {"measurement": "Tmax", "setting": "[3]; mild renal impairment, Day 6", "value": 1.25, "unit": "h"},
      {"measurement": "Cmin", "setting": "[3]; mild renal impairment", "value": "1.68 (24) ng/mL"},
      {"measurement": "Mean AUC(0-τ) increase vs healthy", "setting": "[3]; moderate impairment", "value": 37, "unit": "%"},
      {"measurement": "Mean Cmax increase vs healthy", "setting": "[3]; moderate impairment", "value": 37, "unit": "%"},
      {"measurement": "AUC(0-τ)", "setting": "[3]; [7]", "value": "26.3 (34) ng · h/mL"},
      {"measurement": "Cmax", "setting": "[3]; [7]", "value": "5.83 (28) ng/mL"},
      {"measurement": "T½", "setting": "[3]; [7]", "value": "9.32 (36) h"},
      {"measurement": "Tmax", "setting": "[3]; [7]", "value": 1.25, "unit": "h"},
      {"measurement": "Cmin", "setting": "[3]; moderate renal impairment", "value": "2.06 (40) ng/mL"},
      {"measurement": "Mean AUC(0-τ) increase vs healthy", "setting": "[3]; severe impairment", "value": 184, "unit": "%"},
      {"measurement": "Mean Cmax increase vs healthy", "setting": "[3]; severe impairment", "value": 115, "unit": "%"},
      {"measurement": "AUC(0-τ)", "setting": "[3]; severe renal impairment, Day 6", "value": "55.8 (45) ng · h/mL"},
      {"measurement": "Cmax", "setting": "[3]; severe renal impairment, Day 6", "value": "9.35 (39) ng/mL"},
      {"measurement": "T½", "setting": "[3]; severe renal impairment, Day 6", "value": "13.9 (30) h"},
      {"measurement": "Tmax", "setting": "[3]; severe renal impairment, Day 6", "value": 1.50, "unit": "h"},
      {"measurement": "Cmin", "setting": "[3]; severe renal impairment", "value": "4.36 (36) ng/mL"}
    ]}
  ]
}
